# Where “and” joins values, the source holds several entries; their conditions need not be identical. Identical values can stand only once. Non-standard residues stand in square brackets, D forms with d. Residues, ends and D or L forms follow the SMILES beside them.
# Columns and labels:
# [1] = tested on: malnourished subjects with CKD; assay: Phase II CKD: bioimpedance; type: in vivo, human; conditions: for Basal metabolic rate: median / Body cell mass: median / Extracellular cell mass: median / Extracellular water: median / Intracellular water: median / Total body water: median / Fat free mass (%): median / Fat free mass (kg): median / Fat mass (%): median / Fat mass (kg): median: ITT; for Fat free mass (%): median / Fat free mass (kg): median / Fat mass (%): median / Fat mass (kg): median: bioimpedance
# Protocol: Height (cm) was measured only at the screening visit. Anthrompometry was measured at every visit from baseline to follow-up. Anthropometric measurements included weight, skinfold thicknesses and arm circumference. Weight (kg) was measured using a high performance scale. Subjects were asked to stand on the scale with minimal clothing, no shoes, and with even weight on both feet. Skinfold thickness (mm) was measured by using Harpenden Skinfold Callipers at 4 sites: biceps, triceps, suprailiacal and subscapular. Arm circumference (cm) was measured using a tape measure that is flexible, inelastic and metric. The site measured was marked, and the tape was not to be too tight or too loose, and to lie flat on the skin, and be horizontal. Bioimpedance measurements were made to measure body composition at every visit from baseline to Day 28. The bioimpedance scale (RJL Systems) was used. Resistance, reactance and the phase angle were recorded.
# Bioelectrical impedance (BIA) was used to evaluate body water content (total body water %, extracellular water and intracellular water), fat free mass and fat mass using Maltron BioScan 916 and BIA 450 apparatus from Biodynamics Corp. The method is fast, precise and noninvasive.
# Bioimpedance measurements were done at every visit from baseline (day 0) on days 7, 14, 21 to 28. Weight and FFM (kg) were measured and FM (kg, %) and FFM (%) were derived. There was an increase from baseline in median FFM (3.3 kg) and decrease in median FM (1.8 kg) in all except one (11/12) patients in the GHRH(1-29)NH2 synthetic analog group on day 28 while there was a decrease in median FFM (0.8 kg) and increase in median FM (1.3 kg) in the placebo arm.
# protein turnover = assay: Phase II, malnourished CKD subjects, 1 mg sc twice daily 28 days: 13C-leucine kinetics (protein turnover); type: in vivo, human; conditions: for Leucine oxidation: adjusted mean difference (analog-placebo): Day 28; for Leucine flux: mean (SD): normalised with body weight
# Protocol: This was a randomized, double-blind, placebo-controlled, parallel-group, multi-centre study of the GHRH(1-29)NH2 synthetic analog in malnourished subjects with CKD. Twenty-six subjects were required to complete the study.
# All study subjects were randomised in equal numbers to receive active GHRH(1-29)NH2 synthetic analog or an equivalent volume of placebo, by sc injection, twice daily for 28 days.
# Vials of investigational product contained 1.4 mg of the GHRH(1-29)NH2 synthetic analog. This was reconstituted with 0.7 mL of water for injection and 0.5 mL of the resultant solution (1.0 mg of active substance) was administered, i.e. approximately 15 μg/kg. The diluent, water for injections, was obtained from commercial stock and labelled accordingly.
# Leucine kinetics was measured on Day 0 and Day 29 by a primed-constant infusion technique during substrate and isotopic steady state. The priming dose consisted of 4.0 μmol/kg of L[1−^13C] leucine and 0.11 mg/kg of NaH^13CO3 and a sustaining infusion rate of L[1−^13C] leucine of 4.0 μmol/kg/h for 4 hours. The isotopes were purchased directly from Cambridge Isotope Laboratories.
# A 1 mL sample of venous blood was taken before administration of the dose of isotope and at 180, 195, 210, 225 and 240 minutes after the start of infusion.
# Breath samples were provided by blowing through a straw into Exetainer® tubes (evacuated 139 B blue tops). Breath samples were collected before the dose of isotope and at 180, 195, 210, 225 and 240 minutes after the start of infusion. Duplicate samples were collected. One sample was sent for analysis; the other was retained in case of loss or breakage. All retained samples were destroyed once the database was locked.
# [2] = ITT, Baseline, listed as GHRH(1-29)NH2 synthetic analog
# [3] = ITT, listed as GHRH(1-29)NH2 synthetic analog
structure (smiles),measurement,setting,value
"CC[C@H](C)[C@H](NC(=O)[C@H](C)NC(=O)[C@H](CC(=O)O)NC(=O)[C@@H](C)NC(=O)[C@@H](N)Cc1ccc(O)cc1)C(=O)N[C@@H](Cc1ccccc1)C(=O)N[C@H](C(=O)N[C@@H](CC(N)=O)C(=O)N[C@@H](CO)C(=O)N[C@H](Cc1ccc(O)cc1)C(=O)N[C@@H](CCCNC(=N)N)C(=O)N[C@@H](CCCCN)C(=O)N[C@H](C(=O)N[C@@H](CC(C)C)C(=O)N[C@H](C)C(=O)N[C@@H](CCC(N)=O)C(=O)N[C@@H](CC(C)C)C(=O)N[C@@H](CO)C(=O)N[C@@H](C)C(=O)N[C@@H](CCCNC(=N)N)C(=O)N[C@@H](CCCCN)C(=O)N[C@@H](CCCCN)C(=O)N[C@@H](CC(C)C)C(=O)N[C@@H](CCC(N)=O)C(=O)N[C@@H](CC(=O)O)C(=O)N[C@H](C(=O)N[C@@H](CCSC)C(=O)N[C@@H](CO)C(=O)N[C@@H](CCCNC(=N)N)C(N)=O)[C@@H](C)CC)C(C)C)[C@@H](C)O [GHRH analog #5, [D-Ala^2, D-Tyr^10, D-Ala^15, Lys^22] hGHRH(1-29)-NH2] (H-Y[dA]DAIFTNS[dY]RKVL[dA]QLSARKKLQDIMSR-NH2)",Median FFM,"[1]; BIA, day 7",50.4 kg
same,Median FM,"[1]; BIA, day 7",13.3 kg
same,Median FFM,"[1]; BIA, day 14",50.8 kg
same,Median FM,"[1]; BIA, day 14",13.4 kg
same,Median FFM,"[1]; BIA, day 21",50.1 kg
same,Median FM,"[1]; BIA, day 21",12.6 kg
same,Decrease from baseline in median FM,"[1]; BIA, day 28",1.8 kg
same,Increase from baseline in median FFM,"[1]; BIA, day 28",3.3 kg
same,Increase in median BMR from baseline,"[1]; BIA, day 28",49 kcal
same,Basal metabolic rate: median,[1]; Baseline,1441 kcal
same,Body cell mass: median,[1]; Baseline,23 kg and 23.0 kg
same,Extracellular cell mass: median,[1]; Baseline,23.5 kg
same,Extracellular water: median,[1]; Baseline,17.7 L
same,Intracellular water: median,[1]; Baseline,17.0 L
same,Total body water: median,[1]; Baseline,35.8 L
same,Basal metabolic rate: median,[1]; Day 28,1473 kcal
same,Body cell mass: median,[1]; Day 28,22.6 kg
same,Extracellular cell mass: median,[1]; Day 28,24.7 kg
same,Extracellular water: median,[1]; Day 28,19.1 L
same,Intracellular water: median,[1]; Day 28,15.8 L
same,Total body water: median,[1]; Day 28,38.1 L
same,Ratio of median ECW/ICW,[1]; baseline,1.04
same,Fat free mass (%): median,[1]; Baseline,75.3%
same,Fat free mass (kg): median,[1]; Baseline,48.8 kg
same,Fat mass (%): median,[1]; Baseline,24.7%
same,Fat mass (kg): median,[1]; Baseline,16.0 kg
same,Fat mass (kg): median,"[1]; Baseline, listed as GHRH(1-29)NH2 synthetic analog",16 kg
same,Fat free mass (%): median,[1]; Day 28,78.6%
same,Fat free mass (kg): median,[1]; Day 28,51.1 kg
same,Fat mass (%): median,[1]; Day 28,21.4%
same,Fat mass (kg): median,[1]; Day 28,12.2 kg
same,Median BCM,[1]; day 7,25.1 kg
same,Median ECM,[1]; day 7,24.4 kg
same,Median increase in BCM from baseline,[1]; day 7,1.3 kg
same,Median increase in ECM from baseline,[1]; day 7,0.8 kg
same,Median BCM,[1]; day 14,24.3 kg
same,Median ECM,[1]; day 14,25.4 kg
same,Median BCM,[1]; day 21,23.2 kg
same,Median ECM,[1]; day 21,25.9 kg
same,Increase in median ECW from baseline,[1]; day 28,1.9 L
same,Increase in median ICW from baseline,[1]; day 28,1.2 L
same,Increase in median total body water from baseline,[1]; day 28,3 L
same,Median increase in BCM from baseline,[1]; day 28,1.8 kg
same,Median increase in ECM from baseline,[1]; day 28,1.7 kg
same,Ratio of median ECW/ICW,[1]; day 28,1.2
same,Leucine flux: mean (SD) change from baseline to Day 28,protein turnover; ITT,1.15 (30.09) μmol/kg · hr
same,Leucine flux: median change from baseline to Day 28,protein turnover; ITT,-0.4 µmol/kg/h
same,Leucine oxidation: mean (SD) change from baseline to Day 28,protein turnover; ITT,2.38 (5.66) μmol/kg · hr
same,Leucine oxidation: median change from baseline to Day 28,protein turnover; ITT,2.3 µmol/kg/h
same,Oxidation of flux: mean (SD) change from baseline to Day 28,protein turnover; ITT,2.64 (6.26) %
same,Oxidation of flux: median change from baseline to Day 28,protein turnover; ITT,3.8%
same,Protein breakdown: mean (SD) change from baseline to Day 28,protein turnover; ITT,1.16 (30.11) μmol/kg · hr
same,Protein breakdown: median change from baseline to Day 28,protein turnover; ITT,-0.4 µmol/kg/h
same,Protein synthesis of flux: mean (SD) change from baseline to Day 28,protein turnover; ITT,−2.64 (6.26) %
same,Protein synthesis of flux: median change from baseline to Day 28,protein turnover; ITT,−3.8%
same,Protein synthesis: mean (SD) change from baseline to Day 28,protein turnover; ITT,−1.22 (30.75) μmol/kg · hr
same,Protein synthesis: median change from baseline to Day 28,protein turnover; ITT,-4.6 µmol/kg/h
same,Leucine flux: median,"protein turnover; ITT, Baseline",98.3 µmol/kg/h
same,Leucine oxidation: mean (SD),"protein turnover; ITT, Baseline",7.74 μmol/kg · hr and 7.74 (4.51) μmol/kg · hr
same,Leucine oxidation: median,"protein turnover; ITT, Baseline",5.8 µmol/kg/h
same,Oxidation of flux: mean (SD),"protein turnover; ITT, Baseline",7.61 (4.19) %
same,Oxidation of flux: median,"protein turnover; ITT, Baseline",6.9%
same,Protein breakdown: mean (SD),"protein turnover; ITT, Baseline",97.45 (21.53) μmol/kg · hr
same,Protein breakdown: median,"protein turnover; ITT, Baseline",94.2 µmol/kg/h
same,Protein synthesis of flux: mean (SD),"protein turnover; ITT, Baseline",92.39 (4.19) %
same,Protein synthesis of flux: median,"protein turnover; ITT, Baseline",93.1%
same,Protein synthesis: mean (SD),"protein turnover; ITT, Baseline",93.71 (20.38) μmol/kg · hr
same,Protein synthesis: median,"protein turnover; ITT, Baseline",88.9 µmol/kg/h
same,Leucine oxidation: mean (SD),protein turnover; [2],7.74 µmol/kg/h
same,Protein breakdown: mean (SD),protein turnover; [2],97.45 µmol/kg/h
same,Protein synthesis: mean (SD),protein turnover; [2],93.71 µmol/kg/h
same,Leucine oxidation: adjusted mean difference (analog-placebo),protein turnover; ITT,1.1 μmol/kg · hr
same,Leucine flux: mean (SD) change from baseline to Day 28,protein turnover; [3],1.15 µmol/kg/h
same,Leucine oxidation: mean (SD) change from baseline to Day 28,protein turnover; [3],2.38 µmol/kg/h
same,Protein breakdown: mean (SD) change from baseline to Day 28,protein turnover; [3],1.16 µmol/kg/h
same,Protein synthesis of flux: median change from baseline to Day 28,protein turnover; [3],-3.8%
same,Protein synthesis: mean (SD) change from baseline to Day 28,protein turnover; [3],-1.22 µmol/kg/h
same,Leucine flux: mean (SD),"protein turnover; ITT, Baseline",101.46 (21.54) μmol/kg · hr
same,Leucine flux: mean (SD),protein turnover; [2],101.46 µmol/kg/h
same,Leucine flux: adjusted mean difference,"protein turnover; ITT, vs placebo",7.5 µmol/kg/h
same,Protein breakdown: adjusted mean difference,"protein turnover; ITT, vs placebo",7.5 µmol/kg/h
same,Protein synthesis: adjusted mean difference,"protein turnover; ITT, vs placebo",6.9 µmol/kg/h
same,Oxidation of flux: adjusted mean difference,"protein turnover; ITT, vs placebo, ANCOVA assuming log-normal distribution",1.48%
same,Leucine oxidation: mean (SD) change from baseline to Day 28,protein turnover; PP (Leucine Kinetic),1.90 (6.24) μmol/kg · hr
same,Leucine oxidation: median change from baseline to Day 28,protein turnover; PP (Leucine Kinetic),2.3 µmol/kg/h
same,Leucine oxidation: mean (SD),"protein turnover; PP (Leucine Kinetic), Baseline",7.81 (5.42) μmol/kg · hr
same,Leucine oxidation: median,"protein turnover; PP (Leucine Kinetic), Baseline",5.6 µmol/kg/h
same,Leucine oxidation: adjusted mean difference (analog-placebo),protein turnover; PP (Leucine Kinetic),3.3 μmol/kg · hr
